Source: patent US6506876B1, “LTA4 hydrolase inhibitor pharmaceutical compositions and methods of use” (G.D. Searle & Co., priority 1994, dated 2003)
“And” between values parts separate entries of the source, which are not always exact repeats. Identical values can stand only once. Counter-ions that a name gives are not always drawn.

biological target: T1, recombinant human LTA4 hydrolase (rhLTA4H) (Homo sapiens, UniProt P09960); assay: Recombinant human LTA4 hydrolase assay for LTA4 hydrolase inhibitor activity; conditions: Recombinant Human LTA4 Hydrolase Assay IC50 LTA4H, recombinant hLTA4H
T1 sequence (P09960 1-611): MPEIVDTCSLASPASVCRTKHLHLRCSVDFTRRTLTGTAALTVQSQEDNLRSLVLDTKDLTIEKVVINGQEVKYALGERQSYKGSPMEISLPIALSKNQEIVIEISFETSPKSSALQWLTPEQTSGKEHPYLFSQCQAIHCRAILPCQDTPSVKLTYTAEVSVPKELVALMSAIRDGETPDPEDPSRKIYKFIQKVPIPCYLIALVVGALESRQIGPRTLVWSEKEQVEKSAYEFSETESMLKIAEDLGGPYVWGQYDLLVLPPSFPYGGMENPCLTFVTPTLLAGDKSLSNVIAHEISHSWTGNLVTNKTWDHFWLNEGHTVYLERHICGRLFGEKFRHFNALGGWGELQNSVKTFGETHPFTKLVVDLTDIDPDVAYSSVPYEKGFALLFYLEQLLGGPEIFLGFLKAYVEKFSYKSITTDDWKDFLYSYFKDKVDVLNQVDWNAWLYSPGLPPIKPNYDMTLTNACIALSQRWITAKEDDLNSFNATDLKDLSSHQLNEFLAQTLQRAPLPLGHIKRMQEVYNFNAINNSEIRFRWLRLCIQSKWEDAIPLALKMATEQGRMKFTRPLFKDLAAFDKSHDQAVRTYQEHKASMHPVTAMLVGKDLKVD

Row | Structure (SMILES) | IC50
1 | CCOC(=O)[C@@H]1CCN(CCOc2ccc(Cc3ccccc3)cc2)[C@H](C)C1 (relative stereo) [Example 298] | 2500 nM
2 | c1ccc(Cc2ccc(OCCn3ccc4ncnc-4c3)cc2)cc1 [340 A] | 11 nM
3 | c1ccc(Cc2ccc(OCCCn3cnc4cccnc43)cc2)cc1 [341 A] | 5700 nM
4 | c1ccc(COc2ccc(OCCn3cccc4ncnc3-4)cc2)cc1 [346 C] | 2200 nM
5 | c1ccc(Oc2ccc(OCCCn3cnc4cccnc43)cc2)cc1 [350 A] | 19000 nM
6 | c1ccc(Oc2ccc(OCCCn3cnc4ccncc43)cc2)cc1 [351 A] | 1080 nM
7 | c1ccc(Cc2ccc(OCCn3cnc4cncnc43)cc2)cc1 [357 B] | 730 nM
8 | c1ccc(Cc2ccc(OCCn3cncc4ncnc3-4)cc2)cc1 [357 D] | 40 nM
9 | c1ccc(Cc2ccc3c(c2)CC(Cn2cnc4cccnc42)O3)cc1 (stereo not shown) [359 A] | 100000 nM
10 | c1ccc(Cc2ccc3c(c2)CC(Cn2cnc4ncccc42)O3)cc1 (stereo not shown) [359 B] | 10000 nM
11 | c1ccc(Cc2ccc3c(c2)CC(Cn2cccc4ncnc2-4)O3)cc1 (stereo not shown) [359 C] | 3500 nM
12 | c1ccc(Cc2ccc3c(c2)CC(Cn2nnc4ncccc42)O3)cc1 (stereo not shown) [360 C] | 5000 nM
13 | c1ccc(Cc2ccc3c(c2)CC(Cn2nnc4cnccc42)O3)cc1 (stereo not shown) [361 B] | 7000 nM
14 | c1ccc(Oc2ccc(OCCN3CCCC3)nc2)cc1 [Example 65, 5-phenoxy-2-[2-(1-pyrrolidinyl)ethoxy]pyridine] | 110 nM
15 | c1ccc(Oc2ccc(NCCN3CCCC3)cc2)cc1 [Example 71, N-(4-phenoxyphenyl)-1-pyrrolidine ethanamine, monohydrochloride] | 6500 nM
16 | Clc1cc(OCCN2CCCC2)ccc1Cc1ccccc1 [Example 114] | 3000 nM
17 | Cc1cc(Cc2ccccc2)ccc1OCCN1CCCC1 [Example 117] | 3900 nM
18 | Cc1cc(OCCN2CCCC2)ccc1Cc1ccccc1 [Example 118] | 9000 nM
19 | Fc1cc(Cc2ccccc2)cc(F)c1OCCN1CCCC1 [Example 119] | 4000 nM
20 | Fc1cc(OCCN2CCCC2)c(F)cc1Cc1ccccc1 [Example 120] | 8000 nM
21 | COC(=O)c1cc(Cc2ccccc2)ccc1OCCN1CCCC1 [Example 123] | 7000 nM
22 | COc1cc(Cc2ccccc2)ccc1OCCN1CCCC1 [Example 124] | 25000 nM

Row | Structure (SMILES) | IC50
23 | COc1ccccc1Cc1ccc(OCCN2CCCC2)cc1 [Example 129] | 16000 nM
24 | c1cc(OCCN2CCCC2)ccc1Cc1ccc2c(c1)OCO2 [Example 130] | 170 nM
25 | c1ccc2nc(Cc3ccc(OCCN4CCCC4)cc3)ccc2c1 [Example 131] | 4300 nM
26 | Fc1ccccc1Cc1ccc(OCCN2CCCC2)cc1 [Example 141] | 13 nM
27 | Clc1cccc(Cc2ccc(OCCN3CCCC3)cc2)c1 [Example 143] | 56 nM
28 | COc1ccc(Cc2ccc(OCCN3CCCC3)cc2)cc1F [Example 144] | 80 nM
29 | c1ccc2cc(COc3ccc(OCCN4CCCC4)cc3)ccc2c1 [Example 200] | 350 nM
30 | c1ccc2ncc(COc3ccc(OCCN4CCCC4)cc3)cc2c1 [Example 201] | 330 nM
31 | Brc1ccc(COc2ccc(OCCN3CCCC3)cc2)cc1 [Example 203] | 380 nM
32 | Fc1ccc(COc2ccc(OCCN3CCCC3)cc2)cc1 [Example 205] | 900 nM
33 | Clc1cccc(COc2ccc(OCCN3CCCC3)cc2)c1 [Example 206] | 200 nM
34 | Fc1ccccc1COc1ccc(OCCN2CCCC2)cc1 [Example 207] | 220 nM
35 | Cc1ccc(COc2ccc(OCCN3CCCC3)cc2)cc1 [Example 212] | 3000 nM
36 | COc1ccc(COc2ccc(OCCN3CCCC3)cc2)cc1 [Example 213] | 1300 nM
37 | c1ccc2c(COc3ccc(OCCN4CCCC4)cc3)cccc2c1 [Example 214] | 2800 nM
38 | NC(=O)C1CCN(CCOc2ccc(Cc3nccs3)cc2)CC1 [Example 231] | 5000 nM
39 | COc1ccc(Cc2ccc(OCCN3CCC(C(N)=O)CC3)cc2)cc1 [Example 232] | 2100 nM
40 | NC(=O)C1CCN(CCOc2ccc(Cc3ccc(Cl)cc3)cc2)CC1 [Example 234] | 8000 nM
41 | NC(=O)C1CCN(CCOc2ccc(Cc3ccc(F)cc3)cc2)CC1 [Example 235] | 10000 nM
42 | NC(=O)C1CCN(CCOc2ccc(Cc3cccnc3)cc2)CC1 [Example 236] | 20000 nM
43 | NC(=O)C1CCCN(CCOc2ccc(Cc3ccccc3)cc2)C1 (stereo not shown) [Example 243] | 70 nM
44 | c1ccc(Cc2ccc(OCCN3CCC4(CC3)OCCO4)cc2)cc1 [Example 246] | 7000 nM

Row | Structure (SMILES) | IC50
45 | CCOC(=O)CCNC(=O)C1CCN(CCOc2ccc(Cc3ccccc3)cc2)CC1 [Example 249] | 3200 nM
46 | CNC(=O)C1CCN(CCOc2ccc(Oc3ccccc3)cc2)CC1 [Example 255] | 280 nM
47 | O=C(CCNCCCOc1ccc(Cc2ccccc2)cc1)OCc1ccccc1 [Example 261] | 1250 nM
48 | CCOC(=O)C1CCCN(CCOc2ccc(Cc3ccccc3)cc2)C1 (stereo not shown) [Example 270] | 50000 nM
49 | CCOC(=O)CCNCCCCCOc1ccc(Cc2ccccc2)cc1 [Example 274] | 800 nM
50 | c1ccc(Cc2cnc3c(c2)CC(CN2CCCC2)O3)cc1 (stereo not shown) [Example 287] | 330 nM
51 | c1ccc(Oc2ccc3c(c2)CC(CN2CCCC2)O3)cc1 (stereo not shown) [Example 289] | 43 nM
52 | c1ccc(Cc2ccc3c(c2)CCC(CN2CCCC2)O3)cc1 (stereo not shown) [Example 292] | 7 nM
53 | CCOC(=O)CC1CCN(CCCOc2ccc(Cc3ccccc3)cc2)CC1 [Example 302] | 3000 nM
54 | COC(=O)CC1CC2CC1N(CCOc1ccc(Cc3ccccc3)cc1)C2 (stereo not shown) [Example 307] | 440 nM
55 | CCOC(=O)C1CCN(CCOc2ccc(Cc3ccsc3)cc2)CC1 [Example 313] | 25000 nM
56 | COc1ccc(Cc2ccc(OCCN3CCC(C(N)=O)CC3)cc2)cc1F [Example 314] | 1500 nM
57 | COC(=O)CNCCCOc1ccc(Cc2ccccc2)cc1 [Example 318] | 2500 nM and 4200 nM
58 | COC(=O)CCN(C)CCCOc1ccc(Cc2ccc(F)cc2)cc1 [Example 332] | 14000 nM
59 | c1ccc(Cc2ccc(OCCn3ccc4ncccc43)cc2)cc1 [Example 342] | 970 nM
60 | c1ccc(Oc2ccc(OCCn3cnc4ccccc43)cc2)cc1 [Example 344] | 11100 nM
61 | c1ccc(Cc2ccc(OCCn3ccnc3)cc2)cc1 [Example 352] | 120 nM
62 | [O-][n+]1ccc2ncn(CCOc3ccc(Cc4ccccc4)cc3)c2c1 [Example 364] | 36 nM
63 | O=C(O)C1CCN(CCOc2ccc(Cc3ccccc3)s2)CC1 [Example 371] | 860 nM
64 | CC(CN1CCCCC1)Oc1ccc(Cc2ccccc2)cc1 (stereo not shown) [Example 403] | 750 nM

same assay, conditions: at 25 μM

Row | Structure (SMILES) | Recombinant Human LTA4 Hydrolase Assay, % at 25 μM
65 | O=C(O)c1ccc(-c2ccc(OCCN3CCCC3)cc2)cc1 [Example 63, 4-[4-[2-(1-pyrrolidinyl)ethoxy]phenyl]benzoic acid] | 40% at 25
66 | O=C(O)c1ccc(Oc2ccc(OCCN3CCCC3)cc2)cc1 [Example 64, 4-[4-[2-(1-pyrrolidinyl)ethoxy]phenoxy]benzoic acid] | 52% at 25
67 | Clc1cccc(Cl)c1COc1ccc(OCCN2CCCC2)cc1 [Example 204] | 49% at 25
68 | Cc1ccccc1COc1ccc(OCCN2CCCC2)cc1 [Example 210] | 4% at 25 μM

same assay, conditions: read-out: Recombinant Human LTA4 Hydrolase Assay, % at 3 μM

Row | Structure (SMILES) | inhibition at 3 µM
69 | c1ccc(COc2ccc(OCCn3cnc4cccnc43)cc2)cc1 [346 A] | 31%
70 | Fc1ccc(Oc2ccc(OCCn3cnc4cccnc43)cc2)cc1 [354 A] | 51%
71 | Cc1nc(COc2ccc(OCCN3CCCC3)cc2)cs1 [Example 202] | 44%
72 | O=C(OCc1ccccc1)[C@@H]1CCCN1CCCOc1ccc(Cc2ccccc2)cc1 [Example 228] | 28%
73 | CC(C)(C)OC(=O)C1CCCN1CCCOc1ccc(Cc2ccccc2)cc1 (stereo not shown) [Example 260] | 14%
74 | CC(C)(C)OC(=O)CCNCCCOc1ccc(Cc2ccccc2)cc1 [Example 268] | 53%
75 | c1ccc(Oc2ccc(OCCCn3cnc4ccccc43)cc2)cc1 [Example 343] | 40%
76 | c1ccc(COc2ccc(OCCn3cnc4ccccc43)cc2)cc1 [Example 345] | 35%

same assay, conditions: read-out: Recombinant Human LTA4 Hydrolase Assay, % at 100 μM

Row | Structure (SMILES) | inhibition at 100 µM
77 | c1ccc(Cc2ccc3c(c2)CC(Cn2nnc4cccnc42)O3)cc1 (stereo not shown) [360 A] | 36%
78 | c1ccc(Cc2ccc3c(c2)CC(Cn2nc4cccnc4n2)O3)cc1 (stereo not shown) [360 B] | 19%
79 | c1ccc(Cc2ccc3c(c2)CC(Cn2nc4ccncc4n2)O3)cc1 (stereo not shown) [361 A] | 24%
80 | NC(=O)C1CCN(CCCOc2ccc(Cc3ccccc3)cc2)CC1 [Example 226] | 4%
81 | NC(=O)C1CCCN(CCCOc2ccc(Cc3ccccc3)cc2)C1 (stereo not shown) [Example 244] | 15%
82 | CC1(CN2CCC(C(N)=O)CC2)Cc2cc(Cc3ccccc3)ccc2O1 (stereo not shown) [Example 286] | 41%
83 | CCOC(=O)C1CCN(CCOc2ccc(Cc3cccnc3)cc2)CC1 [Example 311] | 44%
84 | CCOC(=O)C1CCN(CCOc2ccc(Cc3ccc(F)cc3)cc2)CC1 [Example 312] | 46%
85 | O=C(CNCCOc1ccc(Cc2ccccc2)cc1)OCc1ccccc1 [Example 319] | 47%
